Results on two molecules are retold here after US7893252B2, “Selectively depolymerized galactomannan polysaccharide” (priority 2003, dated 2011).

Molecules are shown by their SMILES.

Data set [1] deals with human colon tumor COLO 205. In words: Efficacy study in COLO 205 human colon tumor xenografts, q4d×3 (Example 3). As to conditions: 5-FU 75 mg/kg/dose. As to the method:
The both studies were conducted as follows.
5-FU alone was administered i.v. on the same q4d×3 treatment schedule at doses of 75 mg/kg/dose (225 mg/m2/dose). 5-FU was formulated in saline fresh on each day of treatment at a concentration of 3.75 mg/mL, at pH 9.2. […] Both individual compounds and their mixture were administered according to exact body weight with injection volume being 0.2 mL/10 g body weight.
There were a total of four groups of 10 animals each, s.c.-implanted with COLO 205 human colon tumor xenografts.
(In general: In xenograft studies the graft and the host belong to different species.)

Data set [2] has as its system COLO 205 human colon tumor xenografts. In words: Efficacy and compatibility with leucovorin in COLO 205 human colon tumor xenografts, q4d×4 (Example 4). The following applies: GM 120 mg/kg/dose. The protocol:
The principal differences with the study described in Example 3 were that (a) the galactomannan was from another source, of a different size (molecular weight) and with a different Man/Gal ratio, (b) there were four consecutive injections, not three, (c) there were four doses of the galactomannan tested, not one, (d) 5-FU was administered (i.v.) in 48 mg/kg/dose, not 75 mg/kg/dose, as in the first study, and (e) galactomannan (i.v. injection) was compared with leucovorin (oral gavage, administered two hours after 5-FU) in terms of efficacy and toxicity. […] 5-FU alone was administered i.v. on the same q4d×4 treatment schedule at dosages of 48 mg/kg/dose. 5-FU was formulated in saline fresh on each day of treatment at a concentration of 4.8 mg/mL, at pH 9.2. […] Leucovorin powder (clinical formulation, Leucovorin calcium for injection) was reconstituted with water for injection to yield a concentration of 10 mg/mL. On each day of treatment the stock solution was diluted with water for injection to yield a concentration of 2.5 mg/mL.
Two more combination-treatment groups were also included in the study. One group of mice was treated with 5-FU (48 mg/kg/dose, i.v., q4d×4), followed by oral gavage (p.o.) with leucovorin, administered two hours after 5-FU at a dosage of 25 mg/kg/dose. Another two groups of mice were treated with 5-FU in a combination with the galactomannan (48 mg/kg/dose and 120 mg/kg/dose, respectively, i.v., q4d×4), followed by p.o. leucovorin treatment, administered at a dosage of 25 mg/kg/dose two hours after 5-FU plus the galactomannan.
There were a total of nine groups of 10 animals each, s.c.-implanted with COLO 205 human colon tumor xenografts.

Data set [3] deals with mice. In words: Acute toxicology, single IV dose in mice. The following applies: single IV dose 409 mg/kg (1227 mg/m2) 5-FU. The class given is in vivo. As to the method:
Acute toxicology studies of the galactomannan of the present invention were performed in mice, rats and dogs and subchronic toxicology studies were performed in rats and dogs. The following is a summary of the findings of these studies: […]

Data set [4] deals with rats. Kind of data set: Acute toxicology, single IV dose in rats. The class given is in vivo. As to conditions: 5-FU 140 mg/kg, galactomannan 72 mg/kg, combination 140/72 mg/kg, n=5/sex/group. The protocol: (§1) Acute toxicology studies of the galactomannan of the present invention were performed in mice, rats and dogs and subchronic toxicology studies were performed in rats and dogs. The following is a summary of the findings of these studies:
In rats (n=5/sex/group), single IV doses of 140 mg/kg (840 mg/m2) 5-FU, 72 mg/kg (432 mg/m2) galactomannan or 140/72 mg/kg of the combination produced no deaths in any of the groups.
Toxic changes in body weight, feed consumption, and hematology were less severe in the rats injected with the combination, versus those injected with 5-FU alone.

The test system of data set [5] is dogs. Kind of data set: Acute toxicology, single IV injection in dogs. The class given is in vivo. The following applies: 5-FU 28.5 mg/kg, galactomannan 15 mg/kg, combination 28.5/15 mg/kg. As to the method: as §1
The surviving dogs remained clinically normal and had no treatment-related changes in body weight, feed consumption, ECG tracings, clinical pathology or gross tissue changes during the 21-day study period.

The test system of data set [6] is rats. Kind of data set: 28-day subchronic rat study (Example 7). As to conditions: 48 mg/kg 5-FU, daily IV for four consecutive days. The class given is in vivo. As to the method:
In the 28-day subchronic rat study performed with research grade unfiltered galactomannan, single daily IV doses of 10 mL/kg saline, 48 mg/kg (288 mg/m2) 5-FU, 48 mg/kg (288 mg/m2) galactomannan or 24/13 mg/kg (144/78 mg/m2), 36/19 mg/kg (216/114 mg/m2) or 48/25 mg/kg (288/150 mg/m2) of the 5-FU/galactomannan combination were given at a rate of 1 mL/min for four consecutive days. The four doses of 5-FU produced mortality (7/8 with 48 mg/kg 5-FU; 1/8, 2/8 and 7/8 with 24/13, 36/19 and 48/25 mg/kg 5-FU/galactomannan, respectively).
Lesions in unscheduled-death animals were primarily due to the expected action of 5-FU on the hematopoietic and lymphoid systems, with secondary bacterial invasion and disseminated hemorrhage due to effects on coagulation. At the study day 5 necropsy, lesions included pronounced hypocellularity of the bone marrow, lymphoid atrophy of the thymus and atrophy of villi in the various segments of the small intestine (all considered due to the expected action of 5-FU). With the exception of the mild granulomatous foci in the lungs, treatment-related histopathological lesions were resolved in animals sacrificed at study day 29 (only one female survived in Group 2 and Group 6).

The subject of data set [7] is beagle dogs. Kind of data set: 28-day canine study (Example 9). The following applies: 6 mg/kg (120 mg/m2) 5-FU, daily IV for four consecutive days. The class given is in vivo. As to the method:
In a 28-day canine study, single daily IV doses of saline, 6 mg/kg (120 mg/m2) 5-FU and ([…] (240 mg/m2) galactomannan or 4/2 mg/kg (80/40 mg/m2), 6/3.2 mg/kg (120/64 mg/m2) or 6/6 mg/kg (120/120 mg/m2) 5-FU/galactomannan were injected for four consecutive days to six groups of beagle dogs Mortality occurred in 13 of 48 dogs (five moribund sacrifices and eight found dead) between Study Days 2 and 5 (4/4 males on 5-FU; 3/4 males in the 4/2 mg/kg 5-FU/galactomannan group; 2/4 males and 1/4 females in the 6/3.2 and 6/6 mg/kg 5-FU/galactomannan groups, respectively).
Adverse effects in 5-FU groups included ataxia, prostration, vocalization, convulsions, tremors, hypersensitivity to touch, aggressive behavior (resulting in only three doses being given to the 6/3.2 5-FU/galactomanna group), emesis, salivation, soft stools and decreased red cell parameters and platelet counts. […] At the day 5 necropsy, treatment-related histological changes were largely limited to the 5-FU females. At day 29 necropsy, there were no remarkable changes in the survivors.

The test system of data set [8] is advanced colorectal cancer. As to conditions: cited from earlier work.
Where [9] appears, read: q4d×4, 5-FU 48 mg/kg/dose i.v., leucovorin oral 25 mg/kg/dose.

As to `O=c1[nH]cc(F)c(=O)[nH]1` [5-FU, 5-fluorouracil, reference compound], in data set [1] (i.v. q4d×3, GM 120 mg/kg/dose), the mean survival time is listed as 23.7 days, the “median to quadrupling of tumor volume” value was 23.7 days, the “median tumor volume after 56 days of the study” value is reported as 2254 mm3 and the “tumor regression after 56 days of the study” value is given as “no tumor regression”. Moreover, the treatment-related deaths result in data set [1] (i.v. q4d×3, GM 120 mg/kg/dose, 10 mice per group, within two weeks) is “three of ten”. Further, the “time required to quadruple tumor weight” value in data set [1] (intravenous, galactomannan 120 mg/kg/day (360 mg/m2)) was 23.5 days. In data set [2] (i.v. q4d×4, 5-FU 48 mg/kg/dose), the “median to quadrupling of tumor volume” value is 8.7 days and the “median tumor volume after 13 days” value worked out at 800 mm3. Also, in data set [2] (setting [9]), the “median days to quadrupling of tumor weight” value was 8.7 days; the “tumor weight at Day 13 from treatment initiation, mean” value is recorded as 734 mg; the “tumor weight at Day 13 from treatment initiation, median” value worked out at 800 mg. In data set [3], the death was 3/5 and the time of death was in the range of 13 to 16 days. Besides, in data set [4], the deaths result is reported as “no deaths”. The death in data set [5] is 2/2. In addition, in data set [6], the mortality is recorded as 7/8. For the same molecule, the “mortality between Study Days 2 and 5” value in data set [7] is on record as 4/4. In addition, the “patients with hand-foot syndrome” value in data set [8] (continuous infusion regimens) is “approximately 20%”.
Consider `O=C1[O][Pt]2([NH][C@@H]3CCCC[C@H]3[NH]2)[O]C1=O` [Oxaliplatin], for which the “single agent response rate” value in data set [8] (previously treated colorectal cancer patients) is 10%.
